Legend:
Tubulin (Bos taurus) = Tubulin (Bos taurus) (UniProt Q6B856+Q862L2+Q862F3); test: Inhibition of bovine brain tubulin polymerization at 3 uM measured for 1 hr by fluorimetric assay
A549 [1] = test: Cell cycle arrest in human A549 cells assessed as accumulation at G2/M phase at 1 uM after 48 hrs by propidium iodide staining based flow cytometry (reference value: 10%); assay type: functional
A549 [2] = test: Inhibition of alpha-tubulin polymerization in human A549 cells assessed as ratio of soluble to polymerized tubulin at 1 uM after 24 hrs by western blot analysis; assay type: functional
A549 [3] = test: Induction of apoptosis in human A549 cells assessed as caspase-9 activation at 1 uM after 24 hrs by fluorimetry relative to control; assay type: functional
A549 [4] = test: Induction of apoptosis in human A549 cells assessed as caspase-3 activation at 1 uM after 24 hrs by fluorimetry relative to control; assay type: functional
MDA-MB-231 = test: Growth inhibition of human MDA-MB-231 cells after 48 hrs by sulforhodamine B assay; assay type: functional; settings: MDA-MB-231, 48 h
HepG2 = test: Growth inhibition of human HepG2 cells after 48 hrs by sulforhodamine B assay; assay type: functional; settings: HepG2, 48 h
A549 [5] = test: Growth inhibition of human A549 cells after 48 hrs by sulforhodamine B assay; assay type: functional; settings: A549, 48 h
HeLa = test: Growth inhibition of human HeLa cells after 48 hrs by sulforhodamine B assay; assay type: functional
DU-145 = test: Growth inhibition of human DU145 cells after 48 hrs by sulforhodamine B assay; assay type: functional; settings: DU-145, 48 h
A549 [6] = test: Cell cycle arrest in human A549 cells assessed as accumulation at G1 phase at 1 uM after 48 hrs by propidium iodide staining based flow cytometry (reference value: 78%); assay type: functional
A549 [7] = test: Cell cycle arrest in human A549 cells assessed as accumulation at S phase at 1 uM after 48 hrs by propidium iodide staining based flow cytometry (reference value: 10%); assay type: functional

inhibition (Tubulin (Bos taurus))	GI50 (MDA-MB-231)	GI50 (HepG2)	GI50 (A549 [5])	GI50 (HeLa)	GI50 (DU-145)	Structure (SMILES)	Activity (A549 [1])	Ratio (A549 [2])	fold change (FC) (A549 [3])	fold change (FC) (A549 [4])	Activity (A549 [6])	Activity (A549 [7])
38%	–	–	–	–	–	COc1cc(Nc2ncccc2-c2nnc(Nc3ccc(Cl)cc3)o2)cc(OC)c1OC	–	–	–	–	–	–
41%	–	–	–	–	–	COc1cc(Nc2nnc(-c3cccnc3Nc3cc(OC)c(OC)c(OC)c3)o2)cc(OC)c1OC	–	–	–	–	–	–
70%	150 nM	760 nM	210 nM	750 nM	190 nM	COC(=O)Nc1nc2cc(C(=O)c3cccs3)ccc2[nH]1 [NOCODAZOLE]	18%	6	4	4	55%	25%
